Results published in the supplement of paper PMC4862054.

Tests used:
Assay in all cases: normalised viability (% of control), CellTiter-Blue; higher = more viable cells (about 100 = DMSO control)
Details in all cases: incubation time: 72 h
HDQ-P1 [1] = test system: HDQ-P1
Method: (§1)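 DSRT, CellTiter-Blue viability, 72 h incubation. Signal is normalised to DMSO and benzethonium chloride controls. Value is the normalised response at dose 8.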

DU-4475 [2] = test system: DU-4475
Method: as §1

MDA-MB-453 [3] = test system: MDA-MB-453
Method: as §1

CAL-148 [4] = test system: CAL-148
Method: as §1

CAL-85-1 [5] = test system: CAL-85-1
Method: as §1

CAL-51 [6] = test system: CAL-51
Method: as §1

HDQ-P1 [7] = test system: HDQ-P1; remark: listed apart in the source
Method: (§2)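 DSRT, CellTiter-Blue viability, 72 h incubation. Signal is normalised to DMSO and benzethonium chloride controls. Value is the normalised response at dose 6.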

DU-4475 [8] = test system: DU-4475; remark: listed apart in the source
Method: as §2

MDA-MB-453 [9] = test system: MDA-MB-453; remark: listed apart in the source
Method: as §2

CAL-148 [10] = test system: CAL-148; remark: listed apart in the source
Method: as §2

CAL-85-1 [11] = test system: CAL-85-1; remark: listed apart in the source
Method: as §2

CAL-51 [12] = test system: CAL-51; remark: listed apart in the source
Method: as §2

HDQ-P1 [13] = test system: HDQ-P1; remark: listed apart in the source
Method: (§3)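 DSRT, CellTiter-Blue viability, 72 h incubation. Signal is normalised to DMSO and benzethonium chloride controls. Value is the normalised response at dose 7.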

DU-4475 [14] = test system: DU-4475; remark: listed apart in the source
Method: as §3

MDA-MB-453 [15] = test system: MDA-MB-453; remark: listed apart in the source
Method: as §3

CAL-148 [16] = test system: CAL-148; remark: listed apart in the source
Method: as §3

CAL-85-1 [17] = test system: CAL-85-1; remark: listed apart in the source
Method: as §3

CAL-51 [18] = test system: CAL-51; remark: listed apart in the source
Method: as §3

| SMILES | normalised viability (HDQ-P1 [1]) [%] | normalised viability (DU-4475 [2]) [%] | normalised viability (MDA-MB-453 [3]) [%] | normalised viability (CAL-148 [4]) [%] | normalised viability (CAL-85-1 [5]) [%] | normalised viability (CAL-51 [6]) [%] | normalised viability (HDQ-P1 [7]) [%] | normalised viability (DU-4475 [8]) [%] | normalised viability (MDA-MB-453 [9]) [%] | normalised viability (CAL-148 [10]) [%] | normalised viability (CAL-85-1 [11]) [%] | normalised viability (CAL-51 [12]) [%] | other results |
| --- | --- | --- | --- | --- | --- | --- | --- | --- | --- | --- | --- | --- | --- |
| Cc1c(N)nc([C@H](CC(N)=O)NC[C@H](N)C(N)=O)nc1C(=O)N[C@H](C(=O)N[C@H](C)[C@@H](O)[C@H](C)C(=O)N[C@H](C(=O)NCCc1nc(-c2nc(C(=O)NCCC[S+](C)C)cs2)cs1)[C@@H](C)O)[C@@H](OC1OC(CO)C(O)C(O)C1OC1OC(CO)C(O)C(OC(N)=O)C1O)c1cnc[nH]1 (stereo partly drawn) [Bleomycin] (3000 nM) | 76.5 | 107 | 101 | 88.2 | 92.7 | 96.5 | – | – | – | – | – | – | – |
| Cc1cc2c(F)c(Oc3ncnn4cc(OC[C@@H](C)O)c(C)c34)ccc2[nH]1 [Brivanib] (30 nM) | – | – | – | – | – | – | 65.1 | 109 | 85.4 | 92.6 | 91.7 | 91.9 | – |
| Cc1cc2c(F)c(Oc3ncnn4cc(OC[C@@H](C)O)c(C)c34)ccc2[nH]1 [Brivanib] (300 nM) | 113 | 98.9 | 99.1 | 98.5 | 89.8 | 93.6 | – | – | – | – | – | – | – |
| CC(C)C[C@H](NC(=O)[C@H](CCc1ccccc1)NC(=O)CN1CCOCC1)C(=O)N[C@@H](Cc1ccccc1)C(=O)N[C@@H](CC(C)C)C(=O)[C@@]1(C)CO1 [Carfilzomib] (30 nM) | – | – | – | – | – | – | 1.01 | 8.97 | 19.8 | 40.8 | 9.23 | 32.1 | – |
| CC(C)C[C@H](NC(=O)[C@H](CCc1ccccc1)NC(=O)CN1CCOCC1)C(=O)N[C@@H](Cc1ccccc1)C(=O)N[C@@H](CC(C)C)C(=O)[C@@]1(C)CO1 [Carfilzomib] (300 nM) | 0.3 | 1.31 | 18.1 | 1.83 | 2.07 | 2.56 | – | – | – | – | – | – | – |
| Nc1nc(Cl)nc2c1ncn2[C@@H]1O[C@H](CO)[C@@H](O)[C@@H]1F [Clofarabine] (300 nM) | – | – | – | – | – | – | 70.1 | 77 | 82.9 | 68.7 | 65.1 | 81.9 | – |
| Nc1nc(Cl)nc2c1ncn2[C@@H]1O[C@H](CO)[C@@H](O)[C@@H]1F [Clofarabine] (3000 nM) | 95.6 | 19.6 | 44.4 | 32.9 | 54.5 | 15.4 | – | – | – | – | – | – | – |
| CCN(CC)CCOc1ccc(C(=C(Cl)c2ccccc2)c2ccccc2)cc1 [Clomifene] (300 nM) | – | – | – | – | – | – | 105 | 90.6 | 93.9 | 99.2 | 102 | 91.6 | – |
| CCN(CC)CCOc1ccc(C(=C(Cl)c2ccccc2)c2ccccc2)cc1 [Clomifene] (3000 nM) | 132 | 92.4 | 82.8 | 93.3 | 106 | 95.4 | – | – | – | – | – | – | – |
| C[C@@H]1C[C@H]2[C@@H]3CCC4=CC(=O)C=C[C@]4(C)[C@@]3(F)[C@@H](O)C[C@]2(C)[C@@]1(O)C(=O)CO [Dexamethasone] (300 nM) | – | – | – | – | – | – | 69.5 | 99 | 73.7 | 105 | 99.3 | 99.4 | – |
| C[C@@H]1C[C@H]2[C@@H]3CCC4=CC(=O)C=C[C@]4(C)[C@@]3(F)[C@@H](O)C[C@]2(C)[C@@]1(O)C(=O)CO [Dexamethasone] (3000 nM) | 112 | 100 | 78.2 | 93.3 | 115 | 106 | – | – | – | – | – | – | – |
| C[C@@H](CN1CC(=O)NC(=O)C1)N1CC(=O)NC(=O)C1 [Dexrazoxane] (300 nM) | – | – | – | – | – | – | 82.2 | 108 | 97.6 | 83.5 | 95.4 | 95 | – |
| C[C@@H](CN1CC(=O)NC(=O)C1)N1CC(=O)NC(=O)C1 [Dexrazoxane] (1000 nM) | – | – | – | – | – | – | – | – | – | – | – | – | normalised viability (HDQ-P1 [13]): 107%; normalised viability (DU-4475 [14]): 83.6%; normalised viability (MDA-MB-453 [15]): 97.8%; normalised viability (CAL-148 [16]): 102%; normalised viability (CAL-85-1 [17]): 86.9%; normalised viability (CAL-51 [18]): 97.4% |
| C[C@@H](CN1CC(=O)NC(=O)C1)N1CC(=O)NC(=O)C1 [Dexrazoxane] (3000 nM) | 98.1 | 92.8 | 87.5 | 96 | 104 | 83.9 | – | – | – | – | – | – | – |
| CC(C)C(=O)Nc1ccc([N+](=O)[O-])c(C(F)(F)F)c1 [Flutamide] (300 nM) | – | – | – | – | – | – | 93.6 | 113 | 108 | 104 | 98.3 | 105 | – |
| CC(C)C(=O)Nc1ccc([N+](=O)[O-])c(C(F)(F)F)c1 [Flutamide] (3000 nM) | 98.8 | 93.2 | 120 | 104 | 94.9 | 110 | – | – | – | – | – | – | – |
| COc1cc2c(Oc3ccc(NC(=O)C4(C(=O)Nc5ccc(F)cc5)CC4)cc3F)ccnc2cc1OCCCN1CCOCC1 [Foretinib] (30 nM) | – | – | – | – | – | – | 59.1 | 84.3 | 94.1 | 95.1 | 89.2 | 93.3 | – |
| NC(=O)NO [Hydroxyurea] (3000 nM) | – | – | – | – | – | – | 91.3 | 91.3 | 109 | 108 | 110 | 103 | – |
